How the values were obtained:
[1] = test system: HTT; assay: X^on-SaCas9 regulated HTT exon 1 editing in HEK293 cells; assay type: cell-based, Human
Protocol: (§1) Cell culture, transfection, and LMI070/RG7800 treatment. Human embryonic kidney (HEK293) cells (obtained from CHOP Research Vector Core stock) were maintained in DMEM media containing 10% Fetal Bovine Serum (FBS), 1% L-Glutamine and 1% penicillin/streptomycin at 37° C. with 5% CO2. Cells were cultured in 24 well plates and transfected at 80-90% confluence using Lipofectamine 2000 transfection reagent, according to the manufacturer’s protocol. For all experiments, 4 hours after plasmid transfection, cells were treated with LMI070 (MedChemExpress, HY-19620, suspended in DMSO) or RG7800 (MedChemExpress, HY-101792A, suspended in H2O) at the indicated concentrations. Cells were tested for mycoplasma by Research Vector Core. None of the cells used in the study were listed in ICLAC database of commonly misidentified cell lines.
(§2) RNA extraction, RT-PCR, and Splicing assays. Total RNA was extracted using Trizol (Life Technologies) according to the manufacturer’s protocol, with the exception of 1 µL Glycoblue (Life Technologies) in addition to the aqueous phase on the isopropanol precipitation step and a single wash with cold 70% ethanol. To determine HTT expression levels after transfection, RNA samples were quantified by spectrophotometry and subsequently cDNAs generated from […] of total RNA with random hexamers (TaqMan RT reagents, Applied Biosystems). To determine human HTT expression levels in HEK293 cells, we used TaqMan probes for human HTT and glyceraldehyde 3-phosphate dehydrogenase (GAPDH) mRNAs obtained from Applied Biosystems. Relative HTT gene expression was determined using the ddCt method. […] Splicing was determined by PCR using the Phusion High-Fidelity polymerase (Thermofisher) and PCR products separated on a 2.5% agarose gel pre-stained with EtBr and spliced-in and spliced-out band densitometry performed using with the ChemiDoc Imaging System (BioRad) and Image Lab analysis software. Splicing induction from mouse tissues was determined using two custom TaqMan assays designed to determine total or LMI070-spliced in mRNA transcripts. The percentage of induction was determined by dividing the average Ct novel exon and average Ct Total, relative to control animals injected with AAV virus plus vehicle.
Western Blots. HEK293 cells were rinsed and lysed with Passive Lysis Buffer (PBL, Promega), protein concentrations determined using the DC protein assay (Bio-Rad), and 10-20 µg of protein loaded on a 3%-8% NuPAGE Tris-Acetate Gel in tris-acetate buffer (Novex Life Technologies) or a 4-12% NuPAGE TrisBis NuPAGE gels in MES buffer (Novex Life Technologies) to determine HTT, SaCas9, or eGFP protein levels, respectively, with β-catenin as loading control. […]

[2] = test system: HEK293 cells; assay: Differential gene expression analysis (DESeq2) of LMI070 vs DMSO treated HEK293 cells; assay type: cell-based, Human
Protocol: Differential gene expression analysis was performed using DESeq2 to compare samples from the LMI070 and DMSO conditions (Love et al., 2014). To visualize the abundance of meaningfully differentially expressed genes, a volcano plot was generated with a .05 Benjamini-Hochberg adjusted p-value threshold and a 0.1 log fold change threshold.
The pseudoexons identified in LMI070 treated samples share a strong 3′ AGAGUA motif consistent with the previously identified U1 RNA binding site targeted by LMI070 (FIG. 2C) (Cheung et al., 2018). To experimentally validate the identified LMI070 induced splicing events, primer pairs binding the flanking exons of the top 5 candidate genes (FIGS. 2A and 2F-2J) were generated. […] The impact of LMI070 treatment on global gene expression was evaluated by assessing differential expression analysis.

[3] = test system: SMN2 exon 7; assay: SMN2-on cassette exon 7 splicing assay (RT-PCR) in transfected HEK293 cells; assay type: cell-based, Human; conditions: LMI070 compared with RG7800
Protocol: as §1, with “None of the cells used in the study were listed in ICLAC database of commonly misidentified cell lines.” left out
RNA extraction, RT-PCR, and Splicing assays. […] To determine HTT expression levels after transfection, RNA samples were quantified by spectrophotometry and subsequently cDNAs generated from […] of total RNA with random hexamers (TaqMan RT reagents, Applied Biosystems). […] Relative HTT gene expression was determined using the ddCt method. […] Splicing was determined by PCR using the Phusion High-Fidelity polymerase (Thermofisher) and PCR products separated on a 2.5% agarose gel pre-stained with EtBr and spliced-in and spliced-out band densitometry performed using with the ChemiDoc Imaging System (BioRad) and Image Lab analysis software. […]

[4] = test system: HEK293 cells; assay: PCR validation of LMI070-induced novel exons with primers binding the flanking exons; assay type: cell-based, Human; conditions: top 5 candidate genes; cDNA from HEK293 cells treated with LMI070 vs DMSO
Protocol: as §2, with “To determine human HTT expression levels in HEK293 cells, we used TaqMan probes for human HTT and glyceraldehyde 3-phosphate dehydrogenase (GAPDH) mRNAs obtained from Applied Biosystems.” left out, “vehicle. […]” for “vehicle.”

[5] = test system: AAV8.Xon.Epo; assay: In vivo induction of AAV8.Xon.Epo in C57Bl6 mice; conditions: 24 h after the last LMI070 dose
Excerpt: To assess the applicability of Xon for liver targeted therapies, AAV8.Xon.Epo and AAV8.Xon.SaCas9 vectors were generated and delivered to C57Bl6 and Ai14 reporter mice, respectively (FIGS. 7A, 7C, 7F).

[6] = p < 0.05, Benjamin-Hochberg correction, LMI070 vs DMSO

CC1(C)CC(Oc2ccc(-c3ccc(-c4cn[nH]c4)cc3O)nn2)CC(C)(C)N1 [LMI070, 5-(1H-Pyrazol-4-yl)-2-(6-((2,2,6,6-tetramethylpiperidin-4-yl)oxy)pyridazin-3-yl)phenol]
SaCas9 expression from X^on switch ([1]; HEK293 cells, varying doses of LMI070, western blot 24 h): clear dose response
HTT exon 1 editing versus constitutively expressed SaCas9 ([1]; X^on-SaCas9 plus gRNAs, 100 nM LMI070): equivalent editing
reduction of HTT transcripts ([1]; X^on-SaCas9 plus gRNAs, upon LMI070 treatment, RT-qPCR): 50%
HTT protein levels ([1]; X^on-SaCas9 plus gRNAs, upon LMI070 treatment, western blot): similarly reduced
downregulated genes after filtering out low fold-change values ([2]; filtered <0.1 fold): 9
upregulated genes after filtering out low fold-change values ([2]; filtered <0.1 fold): 5
downregulated genes passing the threshold for significance [2, 6]: 24
upregulated genes passing the threshold for significance [2, 6]: 6
relative activity in the setting of the SMN2-on cassette [3]: more active than RG7800
amplification of the novel exons by PCR [4]: Robust amplification
induction of Mouse Epo and hematocrit levels [5]: Induction of Mouse Epo and hematocrit levels were detected
